US12428389B2, “Diarylamide compound and application thereof” (Sunshine Lake Pharma Co., Ltd., priority 2019, dated 2025)

Key:
[1] = tested on: MDCK cells; test: MDCK cytotoxicity test, CCK-8 kit; assay type: cell-based; conditions: 7.8-125 μM, cultured for 12 h
Description: In order to study the cytotoxicity of the compound of the present invention, an MDCK cytotoxicity test was completed by using a CCK-8 kit. […]. In this study, a CCK-8 kit was used to detect the cytotoxicity of compounds: MDCK cell suspension in logarithmic growth phase was inoculated into a 96-well culture plate (1×10^4 cells/well/100 μL), and 100 μL of DMEM culture solution containing 10% fetal bovine serum, 100 U/mL penicillin and 100 μg/mL streptomycin was administrated to each well, then cultured in a 37° C., 5% CO2 incubator. When the cells were 70%-80% confluent, serum starvation was performed for 12 h for synchronization. […]. At the same time, blank wells (medium, CCK-8) and control wells (cells, dissolving medium of the same concentration compound, medium, CCK-8) were set up, 3 replicate wells per group. Cell survival rate was calculated: cell survival rate (%)=[(ODexperimental well−ODblank well)/(ODcontrol well−ODblank well)]×100%, wherein OD refers to the absorbance value of each well.

[2] = tested on: SD rats; test: toxicity after 7 days intragastric administration in rats (organ indexes, serum, kidney histology)
Description: Normal SD rats, 8 weeks old, male, 8 rats in each group were taken. The animals were placed in a metabolic cage and acclimatized for three days prior to the experiment, on a standard diet with free access to water. […] The administration was continued for 7 days. On the 7th day, the rats were anesthetized with sodium pentobarbital, and the liver and kidney were taken, weighed, and the kidney weight index and liver weight index were calculated. […] The kidney tissue was immersed in a fixative solution (4% paraformaldehyde), embedded with a paraffin embedding machine, and then cut into 6 μm thick paraffin sections by a paraffin microtome. […] The sections were observed under an optical microscope. The inner medulla, outer medulla, and cortex of each kidney were selected for comparative observation by an optical microscope. […] Blood was collected by cardiac puncture, then centrifuged to obtain serum, which was used to measure serum indexes by instruments.

[3] = tested on: SD rats; test: single subcutaneous injection, diuretic effect in rats (metabolic cage); assay type: in vivo; conditions: 100 mg/kg subcutaneous
Description: The urine collection system was siliconized in advance to prevent urine loss. […] Solvent control: corn oil. The weight of urine was measured by the weight loss method and converted to volume (1 g≈1 mL). […] The peak of the diuretic effect was at 4 h after administration, and the duration of the diuretic effect was about 6-8 h. The results were shown as means±SEM, n=6. The urine osmotic pressure of the collected urine was measured by using a freezing point osmometer. […] The peak of action was at 4 h after administration, and returned to the level before administration at 6-8 h after administration. The results were shown as means±SEM, n=6. The urine samples were detected by using a urea kit for the level of urea in the urine. According to the previously measured urine volume, urine osmotic pressure and urea excretion per 2 h, the excretion of non-urea solutes per 2 h was calculated. […] The results were shown as means±SEM, n=6.

[4] = tested on: SD rats; test: single intragastric administration, diuretic effect in rats (metabolic cage); assay type: in vivo; conditions: 100 mg/kg, single (FIG. 5: intragastric)
Description: The urine collection system was siliconized in advance to prevent urine loss. […] The weight of urine was measured by the weight loss method and converted to volume (1 g≈1 mL). […] Urine volume began to rise at 2 h after administration, the peak of diuretic effect was at 4 h after administration, and the duration of diuretic effect was about 6-8 h. The results were shown as means±SEM, n=6. The urine osmotic pressure of the collected urine was measured by using a freezing point osmometer. […] The peak of action was at 4 h after administration, and recovered to the level before administration at 6-8 h after administration. The results were shown as means±SEM, n=6. Urine samples were detected by using a urea kit for the level of urea in the urine. According to the previously measured urine volume, urine osmotic pressure and urea excretion per 2 h, the excretion of non-urea solutes per 2 h was calculated. […] C57BL/6J mice, male, 6 in each group, weighing 20˜22 g, were taken. […] The urine collection system was siliconized in advance to prevent urine loss. […] Solvent control: CMC-Na. The weight of urine was measured by the weight loss method and converted to volume (1 g≈1 mL). […] The results were shown as means±SEM, n=6. The urine osmotic pressure of the collected urine was measured by using a freezing point osmometer. […] The results were shown as means±SEM, n=6. The urine samples were detected by using a urea kit for the level of urea in the urine. According to the previously measured urine volume, urine osmotic pressure and urea excretion per 2 h, the excretion of non-urea solutes per 2 h was calculated. […] The results were shown as means ±SEM, n=6.

## CC(=O)Nc1ccc(NC(=O)c2ccc([N+](=O)[O-])o2)cc1 [Example 3, N-(4-acetamidophenyl)-5-nitrofuran-2-carboxamide]
[1]
  cytotoxic effect (cell survival rate): no significant cytotoxic effect
[2]; 100 mg/kg intragastric every 8 h, vs control
  serum urea level: no significant statistical difference
[2]; HE sections
  inner medullary tubules, histology: tubule swelling appeared in the inner medullary
[2]; HE sections, inner medulla, outer medulla, cortex
  histological morphology of the kidney: did not significantly affect
[2]; n = 8
  Serum chlorine: 101.7 ± 1.3 mM
  Serum cholesterol: 1.59 ± 0.06 mM
  Serum glucose: 9.4 ± 0.3 mM
  Serum high-density lipoprotein: 0.71 ± 0.03 mM
  Serum low-density lipoprotein: 0.34 ± 0.03 mM
  Serum potassium: 4.8 ± 0.2 mM
  Serum sodium: 147.3 ± 2.0 mM
  Serum triglyceride: 0.68 ± 0.07 mM
[3]
  duration of the diuretic effect: 6 to 8 h
  peak of action on urine osmotic pressure, time after administration: 4 h
  peak of the diuretic effect, time after administration: 4 h
  urine osmotic pressure returned to the level before administration, time after administration: 6 to 8 h
[4]
  duration of diuretic effect: 6 to 8 h
  peak of action on urine osmotic pressure, time after administration: 4 h
  peak of diuretic effect, time after administration: 4 h
  urine osmotic pressure recovered to the level before administration, time after administration: 6 to 8 h
  urine volume began to rise, time after administration: 2 h
